Measured values reported in patent US11197862B2, “Methods of preventing toxicity of platinum drugs” (XOMICS BIOPHARMA, INC., priority 2015, dated 2021).
Several values for one entry are separate records, joined by “and”; a condition that tells them apart may be missing. Equal values may be shown once. Entries after “also recorded” stand apart in the source; their conditions may differ.

What was measured:
[1] = tested on: HepG2 cells; assay: Anti-proliferation study (SRB assay) in HepG2 cells; conditions: FIG. 10
Description: The potency was determined by the sulforhodamine B (SRB) assay in 96-well plates. […] Seeding density was 3000 cells/well for both cell lines.

[2] = tested on: Balb/c mice exposed to chronic treatment with Oxaliplatin; assay: Dynamic Plantar Aesthesiometer Test in chronic oxaliplatin neuropathy model; type: in vivo, mouse; conditions: for mechanical allodynia, Dynamic Aesthesiometer Test at the end of treatment: OXA 3.5 mg/kg iv, 8 cycles ± BFMD 30 mg/kg ip + 15 mg/kg iv
Description: The Dynamic Plantar Aesthesiometer Test was used to determine the alterations in mechanical pain perception and their changes due to pharmacological treatment. Mice were accustomed to the device 3 days before performing the tests after a 1 hour acclimatization period followed by testing. The mechanical nociceptive threshold was assessed using a Dynamic Aesthesiometer Test (model 37450, Ugo Basile Biological Instruments, Comerio. Italy), which generated a linearly increasing mechanical force. At each time point, after the acclimatization period, a servo-controlled mechanical stimulus (a pointed metallic filament, 0.5-mm diameter) was applied to the plantar surface of the hind paw, which exerted a progressively increasing punctuate pressure, reaching up to 15 g within 15 seconds. The pressure evoking a clear voluntary hind-paw withdrawal response was recorded automatically and taken as representing the mechanical nociceptive threshold index. The mechanical threshold was always assessed alternatively on each side every 2 minutes on 3 occasions to yield a mean value. The results represent the maximal pressure (expressed in grams) tolerated by the animals. There was an upper limit cutoff of 30 seconds, after which the mechanical stimulus was automatically terminated.

[3] = cited from earlier work
[4] = Tissue platinum accumulation by atomic absorption after 8 cycles of oxaliplatin; type: in vivo, mouse; conditions: buflomedil 80 mg/kg po; 8 cycles OXA; 24 h after last administration
Description: At the end of 8 cycles of treatment, cold plate test, dynamic test and NCS test were conducted in all mice. Platinum content in DRG, Sciatic nerves and kidney of 3 mice each in the OXA and OXA+BFMD groups, was measured using the method below. The tissue total platinum concentration was determined on frozen sciatic nerve. […] For each tissue, a calibration with control standard tissue was generated. All frozen test samples and standards were treated for a digestion process with a specific HNO3: HCl solution (1:3). The samples obtained after digestion were analyzed by “Atomic Absorption” (Analyst 600 Perkin Elmer, Monza, Italy), and platinum tissue concentration was calculated accordingly.

[5] = Buflomedil plasma concentration in Balb/C mice after IV and IP administration; type: in vivo; conditions: male, mouse
Description: Male mice of 7-8 weeks of age were allowed to acclimate for 6 days. […] Blood was collected at 0.083, 0.5, and 1 hour into Heparin tubes. The plasma was obtained through centrifugation of the blood at 4000 rpm at 4° C.
For plasma sample analysis, the samples were thawed and mixed well before 20 µL aliquots were processed using protein precipitation by internal standard (Verapamil) containing organic solution, methanol: acetonitrile 5:95 (v/v). After vigorous vortexing and refrigerated centrifugation at 4000 rpm, 50 μL of the extract from each sample was reconstituted with 70 μL of 0.1% formic acid in water. […] The calibration curve was extracted in the same way as the plasma samples. The final extracts were analyzed by LC-MS/MS using positive electrospray ionizations under the multiple-reaction-monitoring (MRM) mode for the detection of buflomedil. The standard curve fitted by linear regression was used to quantify the analyte in the matrix using Analyst 1.5.2 software (AB Sciex) Results

[6] = tested on: OCT2 and MATE1; assay: Buflomedil inhibition of OCT2 and MATE1 with cisplatin or oxaliplatin as substrate (FIG. 15B); type: cell-based, human
[7] = tested on: cells co-expressing OCT2 and MATE1; assay: Intracellular oxaliplatin content in cells co-expressing OCT2 and MATE1; type: cell-based; conditions: oxaliplatin 100 μM in 4% BSA HBSS, 90 min
From the text: In most naturally occurring cells, uptake transporters co-exist with efflux transporters. It is the interplay between the uptake and efflux transporters that determines the net intracellular accumulation of a substrate. One example is in the proximal tubule epithelial cells in the kidney, where the basolaterally expressed transporters, mainly OCT2, work in concert with the apically expressed MATE1 and MATE2K [5]. […] Cells with single expression of OCT2 or GFP mock were also used as a control.

[8] = Mortality, clinical observations and body weight in the chronic model; type: in vivo, mouse; conditions: BFMD 30 mg/kg ip + 15 mg/kg iv ± OXA 3.5 mg/kg iv, twice a week for 4 weeks; n=12/group
[9] = Dolutegravir plasma concentration in Balb/C mice after PO, IV and IP administration; type: in vivo, mouse; conditions: 10 mg/kg PO, 4 mg/kg IV, 4 mg/kg IP
Description: Male mice of 6-7 weeks of age were obtained from Charles River and allowed to acclimate for 3-5 days. The mice were weighed and individually identified (tail marked). The mice (n=3) in the oral (PO) group were fasted overnight and orally gavaged with 10 mg/kg of Dolutegravir. The second group of mice (n=3) were intravenously (IV) injected with 4 mg/kg of Dolutegravir. The third group of mice (n=3) were intraperitoneally (IP) injected with 4 mg/kg of Dolutegravir. At 10 min, 0.5 h, 1 h post dosing. ˜120 μl of blood sample was collected from the IV and IP mice by orbital venous sinus bleeding. At 1 h, 2 h, 4 h post dosing, ˜120 μl of blood sample was collected from the PO mice by orbital venous sinus bleeding. […] For analysis, the plasma samples were diluted into the calibration range as needed. […] The calibration curve was extracted in the same way as the unknown samples. The final extracts were analyzed by LC-MS/MS using positive electrospray ionizations under the multiple-reaction-monitoring (MRM) mode for the detection of Dolutegravir. The standard curve fitted by linear regression was used to quantify the analyte in the matrix using Analyst 1.6.2 software (AB Sciex).

[10] = human, in vivo

COc1cc(OC)c(C(=O)CCCN2CCCC2)c(OC)c1 [Buflomedil, 4-pyrrolidin-1-yl-1-(2,4,6-trimethoxyphenyl)butan-1-one]
effect on anti-tumor potency of oxaliplatin in HepG2 [1]: not buflomedil | mechanical allodynia, Dynamic Aesthesiometer Test at the end of treatment ([2]; listed as BFMD): only the groups treated with OXA alone showed the development of mechanical allodynia | mechanical allodynia, Dynamic Aesthesiometer Test at the end of treatment ([2]; listed as buflomedil): effective on preventing mechanical allodynia | mechanical allodynia (mechanical pain threshold) ([2]; buflomedil 80 mg/kg po 2 hours before OXA, 8 cycles, n=3/group): effective on reducing mechanical (FIG. 30A) and cold (FIG. 30B) allodynia; also recorded: showed protective effects against OXAIPN | plasma level associated with serious toxicities ([3]; European Medicines Agency 2012, Bourguignon 2012): above 10 mg/I and > 32.5 uM | MTC (maximum tolerable concentration) ([3]; plasma): 10 mg/I | platinum (oxaliplatin) accumulation in DRG [4]: effective on reducing platinum accumulation in DRG; also recorded: significant decrease in oxaliplatin accumulation in DRG | platinum (oxaliplatin) accumulation in kidney [4]: effective on reducing platinum accumulation; also recorded: reduced oxaliplatin accumulation in the kidney | platinum (oxaliplatin) accumulation in sciatic nerves [4]: such decrease was not seen in sciatic nerves | concentration at 10 min ([5]; Balb/C, other: IV/IP (intravenous group and intraperitoneal groups), 10 mg/kg IV, 20 or 40 mg/kg IP, each group): > 2000 ng/mL | bioavailability ([5]; ip, Balb/C mice, read-out: estimated bioavailability of IP administration): 40 to 60% | difference in IC50s between oxaliplatin and cisplatin as substrate (OCT2 or MATE1) [6]: nearly identical IC50s; also recorded: no/minimal difference in its IC50s | selectivity toward OCT2 over MATE1, cisplatin or oxaliplatin as substrate [6]: great selectivity toward OCT2 | cellular accumulation of oxaliplatin in cells co-expressing OCT2 and MATE1 [7]: reduced cellular accumulation of oxaliplatin | mortality [8]: Two animals (BFMD and OXA+BFMD groups) died after the first administration; also recorded: one animal (OXA+BFMD group) died after the last administration

C[C@@H]1CCO[C@H]2Cn3cc(C(=O)NCc4ccc(F)cc4F)c(=O)c(O)c3C(=O)N12 [Dolutegravir]
effect of route of administration on plasma exposure [9]: route of administration significantly affected dolutegravir plasma exposure

Clc1ccc(COC(Cn2ccnc2)c2ccc(Cl)cc2Cl)c(Cl)c1 (centres unmarked) [Miconazole]
Plasma peak unbound concentration Cmax,u [10]: 1190 nM
